Test results from PubChem BioAssay (NCI).
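Exposure lasted 48 hours, with cells grown in 96-well plates and compounds tested at five concentrations. TGI is the concentration that stops growth completely.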

Key:
Experiment in all cases: growth of human tumour cells (NCI), 48 h
[1] = tested on: TK-10 renal
[2] = tested on: OVCAR-4 ovarian
[3] = tested on: M14 melanoma
[4] = tested on: SNB-75 CNS
[5] = tested on: HL-60(TB) leukemia
[6] = tested on: SNB-19 CNS
[7] = tested on: MCF7 breast
[8] = tested on: NCI-H226 lung
[9] = tested on: U251 CNS
[10] = tested on: HOP-62 NSCLC
[11] = tested on: RXF 393 renal
[12] = tested on: A498 renal
[13] = tested on: SK-MEL-5 melanoma
[14] = tested on: CAKI-1 renal
[15] = tested on: MDA-MB-435
[16] = tested on: OVCAR-8 ovarian
[17] = tested on: SR leukemia
[18] = tested on: SW-620 colon
[19] = tested on: IGROV1 ovarian
[20] = tested on: 786-0 renal
[21] = tested on: HCC-2998 colon
[22] = tested on: SF-295 CNS
[23] = tested on: MDA-MB-231 breast
[24] = tested on: KM12 colon
[25] = tested on: NCI/ADR-RES ovarian
[26] = tested on: HCT-116 colon
[27] = tested on: EKVX NSCLC
[28] = tested on: HT29 colon
[29] = tested on: T-47D breast
[30] = tested on: SF-268 CNS
[31] = tested on: HCT-15 colon
[32] = tested on: UACC-257 melanoma
[33] = tested on: SF-539 CNS
[34] = tested on: ACHN renal
[35] = tested on: LOX IMVI melanoma
[36] = tested on: UO-31 renal
[37] = tested on: CCRF-CEM leukemia
[38] = tested on: HOP-92 NSCLC
[39] = tested on: MOLT-4 leukemia
[40] = tested on: DU-145 prostate
[41] = tested on: COLO 205 colon
[42] = tested on: RPMI-8226 leukemia
[43] = tested on: SK-MEL-2 melanoma
[44] = tested on: NCI-H460 lung
[45] = tested on: UACC-62 melanoma
[46] = tested on: BT-549 breast
[47] = tested on: SK-MEL-28 melanoma
[48] = tested on: NCI-H23 lung
[49] = tested on: PC-3 prostate
[50] = tested on: K-562 leukemia
[51] = tested on: SK-OV-3 ovarian
[52] = tested on: HS 578T breast

Compound CCOC(=O)c1c(NC(=O)OC)c(C#N)c2n1CCCCC2 has a TGI [1] of over 100 µM, a TGI [2] of over 100 µM and a TGI [3] of over 100 µM. It also gave a TGI [4] of over 100 µM, a TGI [5] of over 100 µM and a TGI [6] of over 100 µM. For the same compound, the TGI [7] was over 100 µM, the TGI [8] was over 100 µM and the TGI [9] was over 100 µM. It also gave a TGI [10] of over 100 µM, a TGI [11] of over 100 µM and a TGI [12] of over 100 µM. It also gave a TGI [13] of over 100 µM, a TGI [14] of over 100 µM and a TGI [15] of over 100 µM. The TGI [16] was over 100 µM, the TGI [17] was over 100 µM and the TGI [18] was over 100 µM. It also gave a TGI [19] of over 100 µM, a TGI [20] of over 100 µM and a TGI [21] of over 100 µM. It also gave a TGI [22] of over 100 µM, a TGI [23] of 91.7 µM and a TGI [24] of over 100 µM. For the same compound, the TGI [25] was over 100 µM, the TGI [26] was over 100 µM and the TGI [27] was over 100 µM. For the same compound, the TGI [28] was over 100 µM, the TGI [29] was over 100 µM and the TGI [30] was over 100 µM. The TGI [31] was over 100 µM, the TGI [32] was over 100 µM and the TGI [33] was over 100 µM. For the same compound, the TGI [34] was over 100 µM, the TGI [35] was over 100 µM and the TGI [36] was over 100 µM. For the same compound, the TGI [37] was over 100 µM, the TGI [38] was over 100 µM and the TGI [39] was over 100 µM. For the same compound, the TGI [40] was 43.9 µM, the TGI [41] was over 100 µM and the TGI [42] was over 100 µM. It also gave a TGI [43] of over 100 µM, a TGI [44] of over 100 µM and a TGI [45] of over 100 µM. For the same compound, the TGI [46] was over 100 µM, the TGI [47] was over 100 µM and the TGI [48] was over 100 µM. The TGI [49] was over 100 µM, the TGI [50] was over 100 µM and the TGI [51] was over 100 µM. The TGI [52] was over 100 µM.
